Experimental data reported in US6569633B1, “Modulation of the sulfonylurea receptor and calcium in adipocytes for treatment of obesity/diabetes” (Artecel Science, Inc., priority 1998, dated 2003).
pKd: −log10 of the molar value.

Assays:
[1] = biological target: rat adipocytes; details: read-out: KD of glibenclamide binding; cited from earlier work
[2] = test system: human preadipocytes; test: Intracellular Ca2+ ([Ca2+]i) response in human preadipocytes; assay type: cell-based
[3] = test system: GPDH activity in human adipocytes; test: GPDH activity in human adipocytes; assay type: cell-based
Method: FIG. 3. The lipogenic effect of glibenclamide in human adipocytes. As an indicator of lipogenic stimulation, both FAS and GPDH activity were measured. A. Glibenclamide stimulation of FAS activity. Human adipocytes were treated with 10 μM glibenclamide alone, 10 μM glibenclamide plus 10 μM diazoxide or 10 μM glibenclamide plus 30 μM nitrendipine for 48 hr. FAS was measured as described (6, 14). *p<0.001 vs. Control. B. Glibenclamide stimulation of GPDH activity. Human adipocytes were treated with 10 μM glibenclamide or 10 μM glibenclamide plus 10 μM diazoxide for 48 hr. GPDH activity was measured as described (14). *p<0.01 vs. Control.
To study the role of adipocyte SUR1 in regulating lipogenesis, we treated human adipocyte with SUR1 agonist and antagonist using FAS and GPDH activities as lipogenic markers. Human adipocytes were incubated in 24-well plates with the treatments indicated for 48 hr. FAS and GPDH activities were determined spectrophotometrically in crude cytosolic extracts of human adipocytes by measuring the oxidation rate of NADPH or NADH respectively, as previously described (14). The protein correction was measured by a modified Bradford method using Coomassie Blue dye (Pierce, Rockford, Ill.).

[4] = test system: human adipocytes; test: Triglyceride accumulation in human adipocytes; assay type: cell-based; details: control 28.2±4.5
Method: Human subcutaneous abdominal adipocytes were isolated from healthy patients undergoing cosmetic liposuction using methodology we have previously described. Briefly, the tissue was washed several times with Hank's Balanced Salt Solution, minced into small fragments and digested with type I collagenase (1 mg/mL) in a shaking water bath at 37° C. for 30-40 minutes. Cells were then filtered through a sterile nylon filter (500 μm mesh) and cultured in Dulbecco's Modified Eagle's Medium (DMEM) supplemented with 1% fetal bovine serum, 1% bovine serum albumin, 100 U/mL penicillin, 100 μg/mL streptomycin and 50 μg/mL gentamicin. Cells were subsequently cultured in suspension in sterile polypropylene flasks in a humidified 37° C./5% CO2 incubator. After one day, suspended (floating) adipocytes were transferred to fresh medium and maintained as a thin layer at the top of the culture medium to ensure access to nutrients. The cells were maintained for another 24 hours in this medium and then changed to fresh medium with the addition of SUR agonists (such as glibenclamide) for up to 48 hours with the compounds to be tested. Medium was changed every 24 hours, and cell viability was verified with trypan blue exclusion at the end of representative experiments.
Stimulation of fatty acid synthase and concomitant inhibition of lipolysis results in increased lipid accumulation in human adipocytes. Adipocytes were treated as described above, harvested, and their triglyceride content was analyzed and normalized for protein content. […] Thus, these calcium-stimulated biochemical activities will contribute to the development of adipocyte hypertrophy and potentially obesity.

COc1ccc(Cl)cc1C(=O)NCCc1ccc(S(=O)(=O)NC(=O)NC2CCCCC2)cc1 [glibenclamide]
pKd [1]: 5.52 to 6.00 | [Ca2+]i response [2]: did not exhibit any [Ca^2+]i response | increase in GPDH activity ([3]; 10 μM glibenclamide, 48 hr): 48% | GPDH activity ([3]; 10 μM glibenclamide, 48 hr, control 554.0±33.0): 821.0±73.4 NADH nM/min/mg protein | increased GPDH activity ([3]; SUR agonists such as glibenclamide, general description): 50-100% | triglyceride accumulation ([4]; 2 μM glibenclamide (dose-responsive series)): 46.1±6.3 μg/mg protein | triglyceride accumulation ([4]; 10 μM glibenclamide (dose-responsive series)): 58.0±3.4 μg/mg protein
